Key:
Assay type in all cases: cell-based
3T3 cells = assay: MTT cell proliferation assay, 3T3 cells; details: Mus musculus, NIH3T3; 3T3 fibroblast cells; approximately 64-72 hours incubation
Description: (§1) The MTT cell proliferation assay was used to study the cytotoxic properties of the compounds. The assay was performed according to the method described by Roche Molecular Biochemicals, with minor modifications. The assay is based on the cleavage of the tetrazolium salt, MTT, in the presence of an electron-coupling reagent. The water-insoluble formazan salt produced must be solubilized in an additional step. Cells grown in a 96-well tissue culture plate were incubated with the MTT solution for approximately 4 hours. After this incubation period, a water-insoluble formazan dye formed. After solubilization, the formazan dye was quantitated using a scanning multi-well spectrophotometer (ELISA reader). […] The cells were seeded at 5,000-10,000 cells in each well of 96-well plate in 100 μL of fresh culture medium and were allowed to attach overnight. The stock solutions of the compounds were diluted in 100 μL cell culture medium to obtain eight concentrations of each test compound, ranging from 1 nM to 30 μM. […] All optical densities were measured at 490 nm using a Vmax Kinetic Microplate Reader (Molecular Devices). In most cases, the assay was performed in duplicate and the results were presented as a mean percent inhibition to the negative control±SE. The following formula was used to calculate the percent of inhibition: Inhibition (%)=(1−(ODo/OD))×100.
(§2) The compounds were tested against MS751, Z138 and 3T3 cells. The MS751 cell line is derived from a metastasis to lymph node of human cervix from a patient diagnosed with squameous cell carcinoma of the cervix. The Z138 cell line is a mature B-cell acute lymphoblastic leukemia cell line derived from a patient with chronic lumphocytic leukemia. 3T3 cells are standard fibroblast cells; they were originally isolated from Swiss mouse embryo tissue.

Z138 cells = assay: MTT cell proliferation assay, Z138 cells; details: Homo sapiens, Z-138, approximately 64-72 hours incubation
Description: as §1, §2

MS751 cells = assay: MTT cell proliferation assay, MS751 cells; details: Homo sapiens; MS751 cervical squamous cell carcinoma cells; approximately 64-72 hours incubation; read-out: MTT Assay IC50 MS-751
Description: as §1, §2

Measured: IC50

Nc1ccc(/C=C/C(=O)NCc2cc3cc(-c4ccc(C(=O)N5CCC(F)(F)CC5)cc4F)cc(Oc4ccc(F)cc4)c3o2)cn1 [Compound 103, (E)-3-(6-aminopyridin-3-yl)-N-((5-(4-(4,4-difluoropiperidine-1-carbonyl)-2-fluorophenyl)-7-(4-fluorophenoxy)benzofuran-2-yl)methyl)acrylamide]
100 to 5000 nM: all assays above

Nc1ccc(/C=C/C(=O)NCc2cc3cc(-c4ccc(C(=O)N5CCC(F)(F)CC5)cc4)cc(Oc4cccc(F)c4)c3o2)cn1 [Compound 101, (E)-3-(6-aminopyridin-3-yl)-N-((5-(4-(4,4-difluoropiperidine-1-carbonyl)phenyl)-7-(3-fluorophenoxy)benzofuran-2-yl)methyl)acrylamide]
100 to 5000 nM: all assays above

Nc1ccc(/C=C/C(=O)NCc2cc3cc(-c4ccc(C(=O)N5CCC(F)(F)CC5)cc4F)cc(OC4CCC4)c3o2)cn1 [Compound 105, (E)-3-(6-aminopyridin-3-yl)-N-((7-cyclobutoxy-5-(4-(4,4-difluoropiperidine-1-carbonyl)-2-fluorophenyl)benzofuran-2-yl)methyl)acrylamide]
100 to 5000 nM: all assays above

Nc1ccc(/C=C/C(=O)NCc2cc3cc(-c4ccc(C(=O)N5CCC(F)(F)CC5)cc4)cc(OC4CCC4)c3o2)cn1 [Compound 104, (E)-3-(6-aminopyridin-3-yl)-N-((7-cyclobutoxy-5-(4-(4,4-difluoropiperidine-1-carbonyl)phenyl)benzofuran-2-yl)methyl)acrylamide]
100 to 5000 nM: all assays above

Nc1ccc(/C=C/C(=O)NCc2cc3cc(-c4ccc(C(=O)N5CCC(F)(F)CC5)cc4)cc(Oc4ccc(F)cc4)c3o2)cn1 [Compound 100, (E)-3-(6-aminopyridin-3-yl)-N-((5-(4-(4,4-difluoropiperidine-1-carbonyl)phenyl)-7-(4-fluorophenoxy)benzofuran-2-yl)methyl)acrylamide]
100 to 5000 nM: all assays above

Nc1ccc(/C=C/C(=O)NCc2cc3cc(-c4ccc(C(=O)N5CCC(F)(F)CC5)cc4F)cc(Oc4cccc(F)c4)c3o2)cn1 [Compound 102, (E)-3-(6-aminopyridin-3-yl)-N-((5-(4-(4,4-difluoropiperidine-1-carbonyl)-2-fluorophenyl)-7-(3-fluorophenoxy)benzofuran-2-yl)methyl)acrylamide]
100 to 5000 nM: all assays above
